The values that follow come from patent publication US20240383872A1, “NOVEL PYRIDINE AND PYRAZINE COMPOUNDS AS INHIBITORS OF CANNABINOID RECEPTOR 2” (HOFFMANN-LA ROCHE INC., priority 2018, published 2024).

Structures are written as SMILES.

What is called Ki is a dissociation constant, usually derived from enzyme kinetics or from competition with a known ligand. Read a high Ki as weaker binding.

The experiment deals with human CB2 receptor (CNR2) (Homo sapiens (Human), UniProt P34972). Nature of the experiment: Radioligand binding assay, human CB2. The following applies: HEK cell membranes expressing human CNR2, [3H]-CP-55,940 radioligand. How it is done: The affinity of the compounds of the invention for cannabinoid CB1 receptors was determined using recommended amounts of membrane preparations (PerkinElmer) of human embryonic kidney (HEK) cells expressing the human CNRI or CNR2 receptors in conjunction with 1.5 or 2.6 nM [3H]-CP-55,940 (Perkin Elmer) as radioligand, respectively. Binding was performed in binding buffer (50 mM Tris, 5 mM MgCl2, 2.5 mM EDTA, and 0.5% (wt/vol) fatty acid free BSA, pH 7.4 for CB1 receptor and 50 mM Tris, 5 mM MgCl2, 2.5 mM EGTA, and 0.1% (wt/vol) fatty acid free BSA, pH 7.4 for CB2 receptor) in a total volume of 0.2 ml for 1 h at 30° C. shaking. The reaction was terminated by rapid filtration through microfiltration plates coated with 0.5% polyethylenimine (UniFilter GF/B filter plate; Packard). Bound radioactivity was analyzed for Ki using nonlinear regression analysis (Activity Base, ID Business Solution, Limited), with the Kd values for [3H]CP55,940 determined from saturation experiments. The compounds of formula (I) show an excellent affinity for the CB2 receptor.
human CB2 receptor (CNR2), sequence (P34972 whole entry): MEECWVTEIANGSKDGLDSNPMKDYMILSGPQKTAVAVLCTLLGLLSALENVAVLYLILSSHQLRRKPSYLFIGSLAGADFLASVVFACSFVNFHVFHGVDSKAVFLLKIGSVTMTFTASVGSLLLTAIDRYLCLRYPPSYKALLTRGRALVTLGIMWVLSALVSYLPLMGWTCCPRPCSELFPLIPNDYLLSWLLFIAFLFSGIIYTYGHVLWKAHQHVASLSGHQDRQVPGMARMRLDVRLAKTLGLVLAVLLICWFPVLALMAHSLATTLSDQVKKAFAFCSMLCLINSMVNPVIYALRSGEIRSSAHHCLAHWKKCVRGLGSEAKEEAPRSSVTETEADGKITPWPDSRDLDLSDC
The compounds according to formula (I) have an activity in the above assay (Ki) between 0.5 nM and 10 μM. Particular compounds of formula (I) have an activity in the above assay (Ki) between 0.5 nM and 3 μM. Other particular compounds of formula (I) have an activity in the above assay (Ki) between 0.5 nM and 100 nM.
For `COC1CN(c2ccc(C(=O)N[C@@H](CC(C)C)C(=O)OCCF)nc2OCC2CC2)C1` [Example 11, 2-Fluoroethyl N-[6-(cyclopropylmethoxy)-5-(3-methoxyazetidin-1-yl)pyridine-2-carbonyl]-L-leucinate], the Ki was determined as 15 nM. In other words, the double-digit nanomolar range.

As for `CCC(CC)(COCF)NC(=O)c1ccc(N2CC(OC)C2)c(OCC2CC2)n1` [Example 34, 6-(Cyclopropylmethoxy)-N-{3-[(fluoromethoxy)methyl]pentan-3-yl}-5-(3-methoxyazetidin-1-yl) pyridine-2-carboxamide], the Ki was determined as 33 nM. Compared with the last compound, the Ki is about 2.2-fold higher.

Consider `CCC(CC)(NC(=O)c1ccc(N2CCCC2)c(OCC2CC2)n1)C(=O)OCCCF` [Example 7, 3-Fluoropropyl 2-{[6-(cyclopropylmethoxy)-5-(pyrrolidin-1-yl)pyridine-2-carbonyl]amino}-2-ethylbutanoate], for which the Ki is 5 nM.

Take `CCC(CC)(NC(=O)c1ccc(N2CC(C)(F)C2)c(OCC2CC2)n1)C(=O)NCCCF` [Example 39, 6-(Cyclopropylmethoxy)-5-(3-fluoro-3-methylazetidin-1-yl)-N-(3-(3-fluoropropylcarbamoyl)pentan-3-yl) picolinamide]: the Ki turned out to be 524 nM.

Take `COC1CN(c2ccc(C(=O)N[C@@H](COCCF)CC(C)C)nc2OCC2CC2)C1` [Example 38, 6-(Cyclopropylmethoxy)-N-[(2R)-1-(2-fluoroethoxy)-4-methylpentan-2-yl]-5-(3-methoxyazetidin-1-yl) pyridine-2-carboxamide]: the Ki was determined as 1300 nM.

`CC(C)C[C@@H](COCCF)NC(=O)c1ccc(N2CCCC2)c(OCC2CC2)n1` [Example 17, 6-(Cyclopropylmethoxy)-N-[(2S)-1-(2-fluoroethoxy)-4-methylpentan-2-yl]-5-(pyrrolidin-1-yl)pyridine-2-carboxamide] gave a Ki of 10 nM.

`COC1CN(c2ccc(C(=O)N[C@@H](C)COCCF)nc2OCC2CC2)C1` [Example 32, 6-(Cyclopropylmethoxy)-N-[(2S)-1-(2-fluoroethoxy)propan-2-yl]-5-(3-methoxyazetidin-1-yl)pyridine-2-carboxamide] showed a Ki of 3120 nM.

Turning to `CC(C)[C@@H](COCF)NC(=O)c1ccc(N2CCCC2)c(OCC2CC2)n1` [Example 19, 6-(Cylopropylmethoxy)-N-[(2S)-1-(fluoromethoxy)-3-methylbutan-2-yl]-5-(pyrrolidin-1-yl)pyridine-2-carboxamide], the affinity corresponds to a Ki of 70 nM.

Compound `CC(C)[C@@H](COCCF)NC(=O)c1ccc(N2CCCC2)c(OCC2CC2)n1` [Example 20, 6-(Cyclopropylmethoxy)-N-[(2S)-1-(2-fluoroethoxy)-3-methylbutan-2-yl]-5-(pyrrolidin-1-yl)pyridine-2-carboxamide] registered a Ki of 60 nM. The Ki values of the last two compounds are within 1.5-fold of each other.

Compound `CC(C)C[C@H](NC(=O)c1ccc(N2CCCC2)c(OCC2CC2)n1)C(=O)OCCCF` [Example 15, 3-Fluoropropyl N-[6-(cyclopropylmethoxy)-5-(pyrrolidin-1-yl)pyridine-2-carbonyl]-L-leucinate] showed a Ki of 40 nM. This Ki lies about 1.5-fold lower than the previous one.

The compound `COC1CN(c2ccc(C(=O)N[C@H](COCCCF)CC(C)C)nc2OCC2CC2)C1` [Example 28, 6-(Cyclopropylmethoxy)-N-[(2S)-1-(3-fluoropropoxy)-4-methylpentan-2-yl]-5-(3-methoxyazetidin-1-yl) pyridine-2-carboxamide] yielded an inhibition constant Ki of 31 nM.

`CC(C)C[C@@H](COCF)NC(=O)c1ccc(N2CCCC2)c(OCC2CC2)n1` [Example 16, 6-(Cyclopropylmethoxy)-N-[(2S)-1-(fluoromethoxy)-4-methylpentan-2-yl]-5-(pyrrolidin-1-yl)pyridine-2-carboxamide] showed a Ki of 8 nM.

Turning to `CC(C)[C@@H](COCCCF)NC(=O)c1ccc(N2CCCC2)c(OCC2CC2)n1` [Example 21, 6-(Cyclopropylmethoxy)-N-[(2S)-1-(3-fluoropropoxy)-3-methylbutan-2-yl]-5-(pyrrolidin-1-yl)pyridine-2-carboxamide], the Ki turned out to be 156 nM.

`COC1CN(c2ccc(C(=O)N[C@H](COCCF)C(C)C)nc2OCC2CC2)C1` [Example 30, 6-(Cyclopropylmethoxy)-N-[(2S)-1-(2-fluoroethoxy)-3-methylbutan-2-yl]-5-(3-methoxyazetidin-1-yl) pyridine-2-carboxamide] gave a Ki of 165 nM.

For the compound `C[C@@H](COCCF)NC(=O)c1ccc(N2CCCC2)c(OCC2CC2)n1` [Example 23, 6-(Cyclopropylmethoxy)-N-[(2S)-1-(2-fluoroethoxy)propan-2-yl]-5-(pyrrolidin-1-yl)pyridine-2-carboxamide], the affinity, expressed as Ki, was 490 nM.

`COC1CN(c2ccc(C(=O)N[C@H](COCCF)CC(C)C)nc2OCC2CC2)C1` [Example 27, 6-(Cyclopropylmethoxy)-N-[(2S)-1-(2-fluoroethoxy)-4-methylpentan-2-yl]-5-(3-methoxyazetidin-1-yl) pyridine-2-carboxamide]: the affinity, expressed as Ki, was 18 nM.

Compound `C[C@@H](COCCCF)NC(=O)c1ccc(N2CCCC2)c(OCC2CC2)n1` [Example 24, 6-(Cyclopropylmethoxy)-N-[(2S)-1-(3-fluoropropoxy)propan-2-yl]-5-(pyrrolidin-1-yl)pyridine-2-carboxamide] displayed a Ki of 671 nM.

`CC(C)C[C@H](NC(=O)c1ccc(N2CCCC2)c(OCC2CC2)n1)C(=O)OCCF` [Example 14, 2-Fluoroethyl N-[6-(cyclopropylmethoxy)-5-(pyrrolidin-1-yl)pyridine-2-carbonyl]-L-leucinate] came in with a Ki of 15 nM.

Consider `COC1CN(c2ccc(C(=O)N[C@@H](CC(C)C)C(=O)OCCCF)nc2OCC2CC2)C1` [Example 12, 3-Fluoropropyl N-[6-(cyclopropylmethoxy)-5-(3-methoxyazetidin-1-yl)pyridine-2-carbonyl]-L-leucinate], for which the Ki is 46 nM.

`CCC(CC)(NC(=O)c1ccc(N2CC(F)(F)C2)c(OCC2CC2)n1)C(=O)OCF` [Example 4, Fluoromethyl 2-{[6-(cyclopropylmethoxy)-5-(3,3-difluoroazetidin-1-yl)pyridine-2-carbonyl]amino}-2-ethylbutanoate] displayed a Ki of 6 nM.

`CC(C)C[C@H](COCCF)NC(=O)c1ccc(N2CCCC2)c(OCC2CC2)n1` [Example 37, 6-(Cyclopropylmethoxy)-N-[(2R)-1-(2-fluoroethoxy)-4-methylpentan-2-yl]-5-(pyrrolidin-1-yl)pyridine-2-carboxamide] had a Ki of 288 nM.

`CCC(CC)(COCCF)NC(=O)c1ccc(N2CC(OC)C2)c(OCC2CC2)n1` [Example 35, 6-(Cyclopropylmethoxy)-N-{3-[(2-fluoroethoxy)methyl]pentan-3-yl}-5-(3-methoxyazetidin-1-yl) pyridine-2-carboxamide]: the affinity corresponds to a Ki of 62 nM.

`CCC(CC)(NC(=O)c1ccc(N2CC(F)(F)C2)c(OCC2CC2)n1)C(=O)OCCCF` [Example 6, 3-Fluoropropyl 2-{[6-(cyclopropylmethoxy)-5-(3,3-difluoroazetidin-1-yl)pyridine-2-carbonyl]amino}-2-ethylbutanoate] came in with a Ki of 19 nM. Compared with the last compound, the Ki is about 3.3-fold lower.

In the case of `CCC(CC)(NC(=O)c1ccc(N2CC(OC)C2)c(OCC2CC2)n1)C(=O)OCCCF` [Example 3, 3-Fluoropropyl 2-{[6-(cyclopropylmethoxy)-5-(3-methoxyazetidin-1-yl)pyridine-2-carbonyl]amino}-2-ethylbutanoate], the inhibition constant (Ki) amounted to 6 nM.

Take `CCC(CC)(NC(=O)c1ccc(N2CC(OC)C2)c(OCC2CC2)n1)C(=O)OCCF` [Example 2, 2-Fluoroethyl 2-{[6-(cyclopropylmethoxy)-5-(3-methoxyazetidin-1-yl)pyridine-2-carbonyl]amino}-2-ethylbutanoate]: affinity was put at a Ki of 2 nM.

In the case of `COC1CN(c2ccc(C(=O)N[C@@H](CC(C)C)C(=O)OCF)nc2OCC2CC2)C1` [Example 10, Fluoromethyl N-[6-(cyclopropylmethoxy)-5-(3-methoxyazetidin-1-yl)pyridine-2-carbonyl]-L-leucinate], the affinity, expressed as Ki, was 336 nM.

`CCC(CC)(NC(=O)c1ccc(N2CCCC2)c(OCC2CC2)n1)C(=O)OCCF` [Example 9, 2-Fluoroethyl 2-{[6-(cyclopropylmethoxy)-5-(pyrrolidin-1-yl)pyridine-2-carbonyl]amino}-2-ethylbutanoate] yielded a Ki of 3 nM.

`CCC(CC)(NC(=O)c1ccc(N2CC(OC)C2)c(OCC2CC2)n1)C(=O)OCF` [Example 1, Fluoromethyl 2-{[6-(cyclopropylmethoxy)-5-(3-methoxyazetidin-1-yl)pyridine-2-carbonyl]amino}-2-ethylbutanoate] came in with a Ki of 2 nM.

`CCC(CC)(NC(=O)c1ccc(N2CCCC2)c(OCC2CC2)n1)C(=O)OCF` [Example 8, 3- Fluoromethyl 2-{[6-(cyclopropylmethoxy)-5-(pyrrolidin-1-yl)pyridine-2-carbonyl]amino}-2-ethylbutanoate]: the inhibitory constant (Ki) stood at 2 nM.

`COC1CN(c2ccc(C(=O)N[C@H](COCF)C(C)C)nc2OCC2CC2)C1` [Example 29, 6-(Cyclopropylmethoxy)-N-[(2S)-1-(fluoromethoxy)-3-methylbutan-2-yl]-5-(3-methoxyazetidin-1-yl) pyridine-2-carboxamide] registered a Ki of 269 nM.
